Measured values as given in patent US8852876B2, “Label free biosensors and cells” (Corning Incorporated, priority 2008, dated 2014).

How the values were obtained:
[1] = system: endogenous GPCRs in A431 cells; experiment: DMR optical biosensor profiling of GPCR agonists; assay type: cell-based, human; details: quiescent A431; first class = Gq-type, second = Gs-type, third = Gi-type, fourth = no significant DMR
Procedure: Human epidermoid carcinoma A431 cells (American Type Cell Culture) were grown in Dulbecco's modified Eagle's medium (DMEM) supplemented with 10% fetal bovine serum (FBS), 4.5 g/liter glucose, 2 mM glutamine, and antibiotics. ˜3-7.5×10^4 cells at passage 3 to 5 suspended in 200 μl the DMEM medium containing 10% FBS were placed in each well of a 96 well microplate. Similarly ˜1-2×10^4 cells in 50 μl the growth medium were placed in each well of a 384 well microplate. After cell seeding, the cells were cultured at 37° C. under air/5% CO2 until ˜95% confluency was reached (˜2-4 days).
A Corning® Epic™ angular interrogation system with transverse magnetic or p-polarized TM0 mode was used for all studies. Several extra actions were taken to minimize the unwanted effects. First, to minimize the bulk index changes when a compound solution is introduced, 1×HBSS buffer without any probenecid was used to dilute all the compounds, whereas the DMEM buffer only was used to starve the cells. Secondly, to facilitate the cell responses as well as to rapidly reach a steady state when the sensor plates having cells were placed in the system at room temperature, the cells were pre-starved with the DMEM buffer without any FBS for a prolonged period of time (typically 20±2 hours), and the quiescent cells were directly used for assays without any wash.
For kinetics measurements, the cultured cells (˜95% confluency) were starved for about 20 hours with DMEM alone at 37° C. under air/5% CO2. Afterwards, the sensor microplate containing cells was placed into the optical system, and the cell responses were recorded before and after addition of a solution at room temperature. […] All studies were carried out at room temperature with the lid of the microplate on except for a short period of time (˜seconds) when the solution was introduced, in order to minimize the effect of temperature fluctuation and evaporative cooling. The unit of the responses indicated herein was a change in pixel of the central position of the resonant band of each sensor as imaged by a CCD camera; 1 unit equals to ˜5.82×10^−4 refractive index changes, based on an experimental normalization protocol, which uses the concentration-dependent responses of both glycerol and dimethyl sulfoxide.
The panel of agonists were used individually to stimulate quiescent A431 cells. The dose-dependent and kinetic responses were recorded and analyzed. In a typical kinetic measurement, the angular shift of resonant lights of each sensor induced by an agonist is monitored in real time and plotted as a function of time. An increased signal (P-DMR) means an increase in the amount of bio-molecules within the sensing volume (˜120 nm); conversely, a decreased signal (N-DMR) means a decrease in the amount of bio-molecules within the sensing volume. The sensing volume, also known as penetration depth, is an intrinsic property of the coupled light within the waveguide film, which creates an evanescent wave extending into the cell layer and the medium.

[2] = molecular target: T1, protease activated receptors PAR1 and PAR2 (Homo sapiens, UniProt P25116); assay type: cell-based; details: quiescent A431; n=3
T1 construct: A431 cells which endogenously express PAR1 and PAR2; endogenous in cells; host or cells: A431
T1 sequence (P25116 22-425): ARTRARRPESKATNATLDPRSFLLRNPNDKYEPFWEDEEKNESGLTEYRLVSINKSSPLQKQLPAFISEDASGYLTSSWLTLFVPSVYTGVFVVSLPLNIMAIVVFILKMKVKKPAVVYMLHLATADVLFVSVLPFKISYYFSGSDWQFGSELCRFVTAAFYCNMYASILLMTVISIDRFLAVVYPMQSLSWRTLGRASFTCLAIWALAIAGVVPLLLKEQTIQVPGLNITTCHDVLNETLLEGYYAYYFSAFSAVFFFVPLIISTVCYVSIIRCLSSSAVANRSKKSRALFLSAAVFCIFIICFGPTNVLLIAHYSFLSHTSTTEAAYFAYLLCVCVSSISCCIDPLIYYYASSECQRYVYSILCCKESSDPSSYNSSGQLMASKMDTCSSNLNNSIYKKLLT
Summary of the method: (§1)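 A431 cells at passage 3-5 grown in DMEM/10% FBS at 37° C, 5% CO2 to ~95% confluency (~2-4 days). Compounds and PAR agonists prepared in 1×HBSS to match the refractive index of the cell medium for dynamic mass redistribution (DMR) read-out.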

[3] = system: protease activated receptors PAR1 and PAR2; assay type: cell-based, human; details: interval about 1 hour
Summary of the method: as §1

[4] = system: protease activated receptors PAR1 and PAR2; experiment: Fluo-3 Ca2+ mobilization assay with PAR agonists; assay type: cell-based, human
Summary of the method: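 A431 cells (passage 3–5), serum-starved overnight, loaded with 4 μM Fluo-3 for 1 h in HBSS/20 mM HEPES pH 7.0 with 2.5 mM probenecid. PAR agonist added and calcium fluorescence recorded over 6 min at 6 s intervals, room temperature.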

[5] = system: actin filaments in A431 cells; experiment: Texas Red-phalloidin fluorescence imaging; assay type: cell-based, human; details: 100 nM trypsin or 40 unit/ml thrombin; ~95% confluency
Procedure: Cells were grown on Corning® Epic™ 96 well biosensor microplates, starved for overnight with serum-free DMEM medium, chased with either trypsin or thrombin for certain time, fixed with 4% paraformaldehyde, permeabilized in phosphate-buffered saline (PBS) containing 0.2% Triton, and blocked with 1% bovine serum albumin (BSA). Afterwards, cells were incubated with 0.5 μM Texas Red-labeled phalloidin for 1 h at room temperature, and washed. After final washes and mounting, cells were examined with a 40× objective, equipped in a Zeiss Axioplan fluorescence microscope.

PAR1 receptor = molecular target: T2, PAR1 receptor (Cricetulus griseus, UniProt A0A8C2QJ57); experiment: Endpoint wavelength-shift measurement, 384 well biosensor plate; assay type: cell-based, Chinese hamster; details: CHO cells; 5 minutes after addition
T2 construct: The PAR1 receptor is endogenously expressed in CHO cells; endogenous in cells; host or cells: CHO
T2 sequence (A0A8C2QJ57 22-428): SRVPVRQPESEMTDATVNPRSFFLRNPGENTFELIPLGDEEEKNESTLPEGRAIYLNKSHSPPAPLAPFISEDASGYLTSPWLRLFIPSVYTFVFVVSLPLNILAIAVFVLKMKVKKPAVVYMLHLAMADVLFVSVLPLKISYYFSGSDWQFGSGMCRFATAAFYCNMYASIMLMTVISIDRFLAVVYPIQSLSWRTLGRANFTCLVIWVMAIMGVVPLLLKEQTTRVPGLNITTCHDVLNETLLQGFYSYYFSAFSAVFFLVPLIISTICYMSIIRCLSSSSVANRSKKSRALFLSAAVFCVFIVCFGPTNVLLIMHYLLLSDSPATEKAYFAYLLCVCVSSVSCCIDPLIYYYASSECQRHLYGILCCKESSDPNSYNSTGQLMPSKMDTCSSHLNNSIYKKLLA
Procedure: The two time points were right before the compound addition (the baseline point), and 5 minutes after the compound addition (the measured point). The difference between two endpoints reflects the total amplitude of the P-DMR event mediated by thrombin—a PAR1 receptor agonist. Here a different cell line—CHO cells was used. The PAR1 receptor is endogenously expressed in CHO cells. The cells become partially quiescent by culturing the cells in the DMEM medium for 4 hours before the thrombin stimulation. In this example, a 384 well Coring Epic biosensor plate was used. Each well contains CHO cells with a confluency of ˜90%. Half of the wells were treated with thrombin at 40 unit/ml, whereas other half of the wells were treated with the buffer HBSS only. Since the agonist-induced activation of both B2 in A431 and PAR1 in CHO cells leads to Gq signaling, the significance of this assay results is that the Gq-type optical signature is at least universal in both cell lines. By using similar endpoint measurements, one is able to screen GPCR modulators against different endogenous targets in different cells.
The two time points were right before the compound addition (the baseline point), and 5 minutes after the compound addition (the measured point). The CHO cells were treated with thrombin at different doses. […]

- Apparent EC50 (P-DMR amplitude, Gq-type) [2]: 9.6±2.0 unit/ml
- Concentration required to induce a maximal response ([4]; [Ca2+]i): 40 unit/ml
- EC50 of [Ca2+]i increase ([4]; quiescent A431, Fluo-3): 6±1 unit/ml
- Maximal [Ca2+]i elevation ([4]; quiescent A431, Fluo-3): 48.2±3.5%
- EC50 ([4]; quiescent A431, Fluo-3, converted from unit/ml, read-out: EC50 of [Ca2+]i increase, equivalent): 60 ± 10 nM
- Apparent EC50 (endpoint wavelength shift) (PAR1 receptor): 12.5 unit/ml
Substance: thrombin
- Class of optical signature (DMR) induced by agonist [1]: first class of optical signatures
- Effect of preceding stimulation on trypsin-induced DMR signal [3]: significantly suppresses but not completely eliminates the trypsin-induced DMR signal
- Effect of preceding stimulation on thrombin-mediated [Ca2+]i elevation ([4]; 40 unit/ml thrombin twice): totally blocked the [Ca^2+]i elevation mediated by 40 unit/ml thrombin
- Effect of preceding stimulation on trypsin-induced [Ca2+]i elevation ([4]; interval 6 min, 200 nM trypsin): slightly suppressed the trypsin-induced [Ca^2+]i elevation
- Reorganization of actin filaments [5]: triggered significant cytoskeletal reorganization after about 10 min
